In patent US20160213733A1, “CHARACTERIZATION OF RICE” (Phytoquest Limited, priority 2013, published 2016):

Key:
[1] = system: digestive enzymes of rat intestinal acetone powder extract; assay: Rat digestive enzyme assays, all activities measured; format: biochemical
Protocol: (§1) Rat intestinal acetone powder extract was purchased from Sigma (11630 lot SLBB6071V) to give results more closely related to digestion. 100 mg of the acetone powder was mixed with 1 ml cold PBS homogenised, sonicated briefly and then spun at 12K rpm for 3 mins.

[2] = system: alpha-glucosidase activity of rat intestinal acetone powder extract; assay: Rat digestive enzyme assay, PNP α-D-glucoside substrate; format: biochemical
Protocol: as §1

[3] = in vivo; cited from earlier work
rodent pancreatic cell = rodent pancreatic cell studies; cited from earlier work

inhibition of the alpha-glucosidase activity (in words) [2]	SMILES	inhibition of the digestive enzymes / activities measured (in words) [1]	effective dose against health risks of excessive intake of fast-digestible carbohydrates [3] [mg/kg]	postprandial blood glucose (in words) [3]	glucose induced-insulin secretion (in words) (rodent pancreatic cell)
–	OC[C@H]1NCC[C@H](O)[C@H]1O [3,4-diepi fagomine, 3,4-diepifagomine]	inhibited none of the activities measured	–	–	–
–	OC[C@H]1NCC[C@H](O)[C@@H]1O [3-epifagomine]	inhibited none of the activities measured	–	–	–
inhibited	OC[C@H]1NCC[C@@H](O)[C@@H]1O [fagomine, 1,2-dideoxynojirimycin]	–	1	lowers postprandial blood glucose	potentiate glucose induced-insulin secretion
